Reference: article PMC10350928 (Journal of Medicinal Chemistry, 2023)

Assays:
Rat hepatocytes = assay: Rat hepatocyte Clint; conditions: for RH: rat hepatocytes
WT c-MET [1] = target: T1, WT c-MET (Homo sapiens, UniProt P08581); format: binding; conditions: Table 1; LLE = pKd – log D
Log D shake-flask method = conditions: octanol/water, pH 7.4, logD, Table 1, octanol and water at pH7.4
WT c-MET [2] = target: T1, WT c-MET; format: biochemical; conditions: Table 3; LLE = pIC50 – log D
[3] = Rat plasma pharmacokinetics; conditions: male, Han Wistar, iv, 0.5 mg/kg
Human hepatocytes = assay: Human hepatocyte Clint; conditions: Table 4
P-gp (MDR1) = assay: MDR1-MDCK permeability and efflux; conditions: dog

T1 sequence (P08581 25-1390): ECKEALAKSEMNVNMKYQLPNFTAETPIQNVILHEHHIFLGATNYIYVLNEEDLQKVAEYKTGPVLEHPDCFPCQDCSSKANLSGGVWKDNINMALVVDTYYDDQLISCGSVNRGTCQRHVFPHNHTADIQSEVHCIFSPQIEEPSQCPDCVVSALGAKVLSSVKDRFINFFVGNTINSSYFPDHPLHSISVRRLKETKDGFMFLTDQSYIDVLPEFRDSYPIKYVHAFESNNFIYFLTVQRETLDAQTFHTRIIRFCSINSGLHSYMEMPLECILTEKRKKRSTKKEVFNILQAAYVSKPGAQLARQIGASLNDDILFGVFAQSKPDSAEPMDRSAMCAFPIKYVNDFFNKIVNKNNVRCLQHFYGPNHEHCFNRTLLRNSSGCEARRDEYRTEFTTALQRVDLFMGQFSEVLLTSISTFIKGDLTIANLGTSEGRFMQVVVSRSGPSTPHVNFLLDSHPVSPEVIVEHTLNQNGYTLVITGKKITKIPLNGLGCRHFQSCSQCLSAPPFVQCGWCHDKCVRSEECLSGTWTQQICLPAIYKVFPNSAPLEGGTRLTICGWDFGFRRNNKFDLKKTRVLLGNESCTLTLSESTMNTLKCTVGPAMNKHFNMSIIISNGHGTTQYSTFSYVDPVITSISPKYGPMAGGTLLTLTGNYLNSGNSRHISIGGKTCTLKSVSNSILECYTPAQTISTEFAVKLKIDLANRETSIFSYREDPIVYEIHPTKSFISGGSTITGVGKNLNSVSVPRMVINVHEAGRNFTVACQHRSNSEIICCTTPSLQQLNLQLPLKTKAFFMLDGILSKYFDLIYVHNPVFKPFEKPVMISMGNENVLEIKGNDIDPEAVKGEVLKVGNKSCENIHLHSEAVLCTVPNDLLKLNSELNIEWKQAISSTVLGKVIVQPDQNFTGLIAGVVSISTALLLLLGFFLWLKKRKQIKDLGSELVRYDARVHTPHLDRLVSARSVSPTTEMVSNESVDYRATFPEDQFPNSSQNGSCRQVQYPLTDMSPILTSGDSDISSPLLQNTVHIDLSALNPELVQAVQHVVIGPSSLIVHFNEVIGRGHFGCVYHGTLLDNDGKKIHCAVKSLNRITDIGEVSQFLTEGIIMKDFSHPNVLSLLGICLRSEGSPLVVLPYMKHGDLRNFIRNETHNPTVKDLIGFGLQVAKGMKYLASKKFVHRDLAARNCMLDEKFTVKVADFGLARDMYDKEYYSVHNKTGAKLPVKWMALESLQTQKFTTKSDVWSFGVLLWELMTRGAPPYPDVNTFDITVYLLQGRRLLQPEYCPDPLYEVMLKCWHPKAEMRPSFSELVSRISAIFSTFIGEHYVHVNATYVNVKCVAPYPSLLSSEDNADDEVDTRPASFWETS

SMILES: CC(c1ccc(F)cc1)n1cc(-c2cc(F)cc(F)c2)c(=O)[nH]c1=O (stereo not drawn) [Compound 6, 5-(3,5-Difluorophenyl)-1-(1-(4-fluorophenyl)ethyl)pyrimidine-2,4(1H,3H)-dione]
- RH (Rat hepatocytes; Table 1): 26.8 μL/min/10^6 cells
- SPR assay LLE WT (WT c-MET [1]): 2.6
- logD (Log D shake-flask method): 3.3

SMILES: C[C@@H](c1ccc(F)cc1)n1cc(-c2cc(F)cc3cn[nH]c23)c(=O)[nH]c1=O [Compound 27, (S)-5-(5-Fluoro-1H-indazol-7-yl)-1-(1-(4-fluorophenyl)ethyl)pyrimidine-2,4(1H,3H)-dione]
- ADP-Glo assay LLE WT (WT c-MET [2]): 4.1
- clearance [3]: 74 mL/min/kg
- RH (Rat hepatocytes; Table 3): 14.8 μL/min/10^6 cells
- Hepatocytes Rat (Rat hepatocytes; Table 4): 14.8 μL/min/10^6 cells
- Hepatocytes Human (Human hepatocytes): 1.81 μL/min/10^6 cells
- efflux ratio at 2 h, 10 μM (P-gp (MDR1)): < 7
